Experimental findings from patent publication US8133984B2, “Oligonucleotides comprising signalling pairs and hydrophobic nucleotides, stemless beacons, for detection of nucleic acids, methylation status and mutants of nucleic acids” (PENTABASE ApS, priority 2006, dated 2012) are described below.

Entries after “also recorded” stand apart in the source; their conditions may differ. {FAM} = fluorescein (FAM) fluorophore label; {BHQ1} = Black Hole Quencher 1

What all share (format): binding
In one series the test system is mismatched DNA target. Nature of the series: Melting temperature experiment (dissociation curve) of probe hybridised to mismatched DNA target. To be noted: for temperature at which the probe hybridises to its mismatched target: FIG. 3, negative derivative of dissociation curve, 4 mM MgCl2, 50 mM KCl, 10 mM TRIS-HCl, pH=8.0. How it is done:
(§1) The measurement was done as a melting temperature experiment on a Mx3000, Stratagene Real-time PCR instrument in a 96-well plate. The measurements were done in a buffer solution reflecting the buffer solutions used in a normal Real-time PCR reaction. The buffer contained 4 mM MgCl2, 50 mM KCl, 10 mM TRIS-HCl, pH=8.0. 1 μL of the Stemless Beacon (5 pmol/μL) and 2 μL of the DNA target sequence (5 pmol/μL) and 22 μL of the buffer mentioned above. First the mixtures were heated to 95° C. for 1 min to denature the secondary structures followed by annealing of the duplexes at 35° C. and ramping up to 95° C. while measuring the signal for every degrees change. Results are shown in FIG. 2, and other details like the sequences of the Stemless Beacons can be seen in the legend to said Figure.
(§2) The Measurements were carried out as described in example 2 above. Result and sequence information can be found in FIG. 3 and in the legend to said figure. The results are shown as the first derivative of the signal against temperature.

The next series concerns matched DNA target. Nature of the series: Melting temperature experiment (dissociation curve) of probe hybridised to matched DNA target. To be noted: for difference between hybridisation temperature to matched and mismatched target: FIG. 3, matched versus mismatched target; for temperature at which the probe hybridises to its matched target: FIG. 3, negative derivative of dissociation curve, 4 mM MgCl2, 50 mM KCl, 10 mM TRIS-HCl, pH=8.0. How it is done: as §1, §2

Series [1] deals with nucleotide 2074 of human Andrenogen receptor, wild type (THP cDNA) and A→G mutant (LNCap cDNA). As to the kind of experiment: End-point affinity measurements on FAM and HEX channel, SNP detection. How it is done: (§3) A test was setup to see if the used combination of probes would be able to distinguish between the wildtype and the A→G transition mutant. Measurements in this example were carried out on the Real-time PCR machine Rotorgene™ 3000 from Corbett Research.
(§4) In this experiment the mut. specific probe was added together with wt. specific probe in a homogenous assay. The label 1 means the inserted pseudonucleotide or hydrophobic nucleotide (Phosphoramidite of (S)-1-(4,4′-dimethoxytriphenylmethyloxy)-3-pyrenemethyloxy-2-propanol) comprising the hydrophobic, intercalating molecule pyrene (with the number XII from the description above). The label 2 means the inserted pseudonucleotide or hydrophobic nucleotide (Phosphoramidite of 3-(1-O-(4,4′-dimethoxytriphenylmethyl)-2-O-(2-cyanoethyl diisopropylamidophosphite)-1,2-butandiol)-4-N-(7,9-Dimethyl-3H-pyrido[3′,2′:4,5]thieno[3,2-d]pyrimidin-4-one)) (comprising the intercalating hydrophobic group with the number XXVI from the description above). FAM and Hex are fluorophores and BHQ1 is a quencher.
(§5) The template: 2 samples of each with cDNA extracted from either LNCap (mutant) and/or THP (wt) (6 samples overall).
(§6) The Real-Time PCR profile used is depicted in FIG. 14B.

Series [2] has the same test system. As to the kind of experiment: Real-time PCR SNP detection, fluorescence read at 55, 61 and 65° C. How it is done: as §3, §4, §5, §6
Background: Quantitative PCR measures a nucleic acid by following its amplification.

For the next series, the system named is Bgal_WT_tar oligo target. Nature of the series: Affinity of stemless probes to single stranded oligo target (melt 25-90° C.). To be noted: for Signal (25° C.): fluorescence at 25° C., hybridised to oligo target; for Signal (25° C.) / Signal (90° C.): 280 mM NaCl, 20 mM Na2HPO4 buffer; for Signal (90° C.): fluorescence at 90° C. An excerpt: This example illustrates how stemless beacons comprising hydrophobic modifications of the structure: X—Y-Q where X is a backbone monomer unit linked to the oligo by phosphordiester bonds and of the structure —O—CH2—CH2—O—, Y is a —CH2—O—CH2— linker and Q is 1′-pyrene, will have higher affinity towards a fully complementary target sequence than a probe not comprising said hydrophobic modifications.
It can be seen from FIG. 13 that all stemless beacons have the similar or higher affinity for the complementary oligo nucleotide target compared to the corresponding DNA. Furthermore it can be calculated that all of the stemless beacons presented in this example (exclusive probe—1) have a similar or higher signal-to-noise ratio than the DNA probe without hydrophobic modifications (signal at 25 degrees divided by signal at 90 degrees).

[3] abbreviates: Example 2, FIG. 2, methylated/unmethylated bisulphite treated DNA target.

Consider “FAM-T2AGG2GCGT2TTTT2T-BHQ1 (DNA TNAGGNGCGTNTTTTNT; FAM, BHQ1, intercalating pseudonucleotide insertions, further chemistry not given here) [SB, 2 = inserted pseudonucleotide comprising intercalating hydrophobic group XXVI]”, for which the “temperature at which the probe hybridises to its mismatched target” value in the series with mismatched DNA target was found to be 49.9 °C. Also, in the series on matched DNA target, the “difference between hybridisation temperature to matched and mismatched target” value was 13.8 °C; the “temperature at which the probe hybridises to its matched target” value stood at 63.7 °C. The “specificity higher than Stemless DNA probe having the same affinity” value in the series on matched DNA target (measured as difference in affinity to a matched versus a mismatched target) is 77%.
Take “HEX-2TCAAA2AGCGA2ACTG2AT-BHQ1 (DNA NTCAAANAGCGANACTGNAT; pseudonucleotide insertions denoted 2, identity not given here, further chemistry not given here) [mut. specific probe, mutant specific probe; 2 = pseudonucleotide with hydrophobic group XXVI]”: in series [1] (HEX channel, at temperatures above 55° C.), the “width of window distinguishing fully complementary from single nucleotide mismatched target” value was “at least 10 °C”. Besides, the “binding of probe in real-time PCR” value in series [2] (at 55° C.) is reported as “hybridising specifically to its target”; in series [2] (at 61° C.) it was “worked fine”; in series [2] (at 65° C.), “no longer binding”.
In the case of “FAM-ATTTTAGGGCGTTTTTTTG-BHQ1 (DNA, 5' {FAM}, 3' {BHQ1}, backbone not given here) [reference compound]”, the “temperature at which the probe hybridises to its mismatched target” value in the series with mismatched DNA target stood at 57.1 °C. In the series on matched DNA target, the “difference between hybridisation temperature to matched and mismatched target” value was 7.8 °C; the “temperature at which the probe hybridises to its matched target” value was 64.9 °C.
Take “5′-Fam ACC GAC 1CC A1G CGC CC BHQ1-3′ [Probe _7]”: in the series with Bgal_WT_tar oligo target, the “Signal (25° C.)” value was determined as 46.92 and the “Signal (90° C.)” value was found to be 7.98.
As to “FAM-T1CAAA1AGTGA1ACTG1AT-BHQ1 (DNA TNCAAANAGTGANACTGNAT; DNA probe with hydrophobic pseudonucleotide insertions denoted 1, structure not given here, further chemistry not given here) [wt specific probe, wild type specific probe; 1 = pyrene pseudonucleotide]”, the “width of window of specific hybridisation” value in series [1] (FAM channel) is listed as “approximately 5 degree”. In addition, the “binding of probe in real-time PCR” value was “binds to both the wild type target and the mutant” in series [2] (at 55° C.); “only a specific signal from wt probe is obtained” in series [2] (at 61° C.); “only binding to its specific target” in series [2] (at 65° C.).
Consider “5′-Fam A1C CGA CCC AGC GCC 1C BHQ1-3′ [Probe _2]”, for which, in the series with Bgal_WT_tar oligo target, the “Signal (25° C.)” value is 34.12 and the “Signal (90° C.)” value is 4.7.
On to “5′-Fam ACC G1A CCC AGC 1GC CC BHQ1-3′ [Probe _5]”, for which, in the series with Bgal_WT_tar oligo target, the “Signal (25° C.)” value is 50.57 and the “Signal (90° C.)” value is recorded as 7.81.
“FAM-A2AAA2ATCCCG2CGA2ACT-BHQ1 (DNA ANAAANATCCCGNCGANACT; FAM, BHQ1, 4 hydrophobic pseudonucleotide insertions, chemistry not fully specified) [Stemless Beacon]”: the “melting temperature of the probe against the mismatched target” value in the series on mismatched DNA target (setting [3]) was 56 °C. Besides, the “melting temperature of the probe against the fully matched target” value in the series with matched DNA target (setting [3]) came to 67 °C. Besides, in the series with matched DNA target (FIG. 2, 35 to 95° C.), the “background fluorescence (fluorescence of unbound probe) compared to the Stemless DNA probe” value was “significantly reduced background fluorescence; also recorded: much lower”.
For “5′-Fam ACC GAC CCA GCG CCC BHQ1-3′ (DNA ACCGACCCAGCGCCC; reference probe without hydrophobic nucleotides, sugar not given here, further chemistry not given here) [Probe _ref (DNA), DNA probe without hydrophobic modifications, reference compound]”, in the series with Bgal_WT_tar oligo target, the “Signal (25° C.)” value was 38.11 and the “Signal (90° C.)” value is listed as 8.65. For the same substance, the Signal-to-noise in the series with Bgal_WT_tar oligo target (signal at 25 degrees divided by signal at 90 degrees) is recorded as 4.41.
As for “5′-Fam ACC GA1 CCC AG1 CGC CC BHQ1-3′ [Probe _6]”, in the series with Bgal_WT_tar oligo target, the “Signal (25° C.)” value is 77.01 and the “Signal (90° C.)” value was 12.85.
